Literature values in PMC3014826 (The Biochemical journal, 2009).

System: A6 TCR
Conditions: ITC, 37 °C; ref Armstrong et al. (2008)

Substance: HTLV-1 Tax11-19 peptide [Native Tax]
- ΔG°: -8.59 ± 0.04 kcal/mol
- ΔH°: -7.1 ± 0.1 kcal/mol
- ΔS°: 4.7 ± 0.4 cal/mol/K
